Measurements as given in patent US11708367B2, “Compounds for the treatment of kinase-dependent disorders” (Exelixis, Inc., priority 2018, dated 2023).

Assays:
Human Axl = Human Axl (Homo sapiens (Human), UniProt P30530, Q764R); test: Human AXL kinase assay (33P radiometric, KinaseProfiler); assay type: biochemical; details: 10 μM ATP
Mer = Mer (Homo sapiens (Human), UniProt Q12866); test: Human Mer kinase assay (33P radiometric, KinaseProfiler); assay type: biochemical; details: 10 μM ATP
Met = Met (Homo sapiens (Human), UniProt P08581); test: Human Met kinase assay (33P radiometric, KinaseProfiler); assay type: biochemical; details: 10 μM ATP, read-out: c-Met IC50
KDR = KDR (Homo sapiens (Human), UniProt P35968); test: KDR autophosphorylation ELISA in HUVEC cells; assay type: cell-based; details: cellular, VEGF165-stimulated, phospho-KDR ELISA
Chain of KDR (P35968 20-1356): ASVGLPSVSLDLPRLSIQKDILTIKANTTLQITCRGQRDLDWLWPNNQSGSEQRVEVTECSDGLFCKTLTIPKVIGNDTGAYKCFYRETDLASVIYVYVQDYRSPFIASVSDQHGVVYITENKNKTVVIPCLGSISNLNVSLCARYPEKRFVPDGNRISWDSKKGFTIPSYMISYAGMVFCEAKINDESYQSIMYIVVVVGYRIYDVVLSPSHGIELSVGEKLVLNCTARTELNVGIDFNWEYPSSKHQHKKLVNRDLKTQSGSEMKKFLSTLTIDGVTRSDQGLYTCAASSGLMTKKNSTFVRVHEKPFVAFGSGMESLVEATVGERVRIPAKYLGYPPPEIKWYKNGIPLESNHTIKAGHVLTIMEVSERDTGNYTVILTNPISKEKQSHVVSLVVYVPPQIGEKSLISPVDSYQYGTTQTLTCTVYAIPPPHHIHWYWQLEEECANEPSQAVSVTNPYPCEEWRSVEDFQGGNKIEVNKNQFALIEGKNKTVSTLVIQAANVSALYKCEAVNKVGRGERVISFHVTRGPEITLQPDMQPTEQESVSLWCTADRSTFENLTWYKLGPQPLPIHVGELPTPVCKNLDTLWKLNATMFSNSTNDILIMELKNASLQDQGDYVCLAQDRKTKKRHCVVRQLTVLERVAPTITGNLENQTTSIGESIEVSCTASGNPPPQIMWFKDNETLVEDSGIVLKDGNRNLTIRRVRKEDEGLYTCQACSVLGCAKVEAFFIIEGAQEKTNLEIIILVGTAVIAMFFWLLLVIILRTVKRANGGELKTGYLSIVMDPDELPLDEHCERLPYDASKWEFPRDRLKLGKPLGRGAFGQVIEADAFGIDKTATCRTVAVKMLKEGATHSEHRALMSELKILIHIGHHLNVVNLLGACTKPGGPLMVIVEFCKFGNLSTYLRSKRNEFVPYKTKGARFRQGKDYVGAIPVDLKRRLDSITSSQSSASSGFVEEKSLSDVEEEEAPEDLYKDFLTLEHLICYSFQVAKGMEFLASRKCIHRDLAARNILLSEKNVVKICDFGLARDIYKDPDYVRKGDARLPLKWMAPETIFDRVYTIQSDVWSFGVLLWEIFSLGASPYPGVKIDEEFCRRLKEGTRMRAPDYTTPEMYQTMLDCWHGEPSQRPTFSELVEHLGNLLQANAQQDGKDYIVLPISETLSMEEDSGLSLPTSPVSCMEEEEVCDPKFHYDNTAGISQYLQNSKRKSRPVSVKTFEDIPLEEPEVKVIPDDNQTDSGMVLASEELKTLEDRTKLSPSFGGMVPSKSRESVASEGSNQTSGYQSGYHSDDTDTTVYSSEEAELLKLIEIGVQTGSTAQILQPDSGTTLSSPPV
In short: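 Serum-starved (24 h) HUVECs were pre-treated with compound (8-point dose curve, 0.3% DMSO final) for 1 h, then stimulated with 100 ng/mL human VEGF165 for 5 min. Lysate phospho-KDR was quantified by ELISA against a phospho-KDR standard. IC50 came from a 4-parameter logistic fit, normalized to stimulated-DMSO (100%) and unstimulated (0%) controls.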

Chain of Mer (Q12866 557-882): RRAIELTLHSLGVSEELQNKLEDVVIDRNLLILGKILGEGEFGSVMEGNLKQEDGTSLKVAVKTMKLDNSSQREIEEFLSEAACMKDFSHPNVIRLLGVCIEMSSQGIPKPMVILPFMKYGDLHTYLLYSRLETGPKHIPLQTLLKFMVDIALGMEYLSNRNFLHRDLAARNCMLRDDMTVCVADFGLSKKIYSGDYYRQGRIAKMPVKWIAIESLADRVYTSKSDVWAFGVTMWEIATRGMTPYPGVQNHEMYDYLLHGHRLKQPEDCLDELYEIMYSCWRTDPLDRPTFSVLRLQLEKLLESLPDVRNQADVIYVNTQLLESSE
Chain of Human Axl (P30530 473-894 Q764R): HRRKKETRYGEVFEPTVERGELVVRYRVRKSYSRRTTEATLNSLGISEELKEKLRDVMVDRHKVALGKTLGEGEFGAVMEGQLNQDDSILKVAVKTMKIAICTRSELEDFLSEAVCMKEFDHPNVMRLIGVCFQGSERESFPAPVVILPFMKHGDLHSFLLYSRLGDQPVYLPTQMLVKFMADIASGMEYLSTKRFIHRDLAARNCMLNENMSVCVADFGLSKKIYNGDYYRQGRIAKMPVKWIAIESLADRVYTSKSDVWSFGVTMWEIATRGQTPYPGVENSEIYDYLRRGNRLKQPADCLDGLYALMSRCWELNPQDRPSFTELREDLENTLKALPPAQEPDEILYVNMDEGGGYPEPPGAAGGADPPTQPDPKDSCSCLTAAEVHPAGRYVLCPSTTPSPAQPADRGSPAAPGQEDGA

| IC50 (Human Axl) [nM] | IC50 (Mer) [nM] | IC50 (Met) [nM] | IC50 (KDR) [nM] | SMILES |
| --- | --- | --- | --- | --- |
| ≤ 10 | ≤ 10 | ≤ 10 | ≤ 10 | COc1cc2nccc(Oc3ccc(NC(=O)C4(C(=O)Nc5ccc(F)cc5)CC4)cc3)c2nc1OC [Compound 139, 1-N-[4-[(6,7-dimethoxy-1,5-naphthyridin-4-yl)oxy]phenyl]-1-N′-(4-fluorophenyl)cyclo-propane-1,1-dicarboxamide] |
| 10 to 100 | ≤ 10 | 10 to 100 | 100 to 300 | COc1cc2ncnc(Oc3ccc(NC(=O)C4(C(=O)Nc5ccc(F)cc5)CC4)cc3)c2cc1C(=O)NCCN1CCCC1 [Compound 118, 1-N′-(4-fluorophenyl)-1-N-[4-[7-methoxy-6-(2-pyrrolidin-1-ylethyl-carbamoyl)quinazolin-4-yl]oxyphenyl]cyclopropane-1,1-dicarboxamide] |
